Experimental data taken from patent US9546164B2 (GENENTECH, INC., priority 2013, dated 2017).
Counter-ions that a name gives are not always drawn.

Target: hNav1.7 (Homo sapiens (Human), UniProt Q15858)
Experiment: Tritiated sulfonamide competitive binding to membranes from cells expressing hNav1.7 and the β1 subunit;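 note: Filter-bound radioactivity counted by liquid scintillation, nonspecific binding defined with excess unlabelled ligand, IC50 fitted to percent inhibition of specific binding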
Conditions: not given

hNav1.7, sequence (Q15858 other isoform, or with tags, fused parts or gaps): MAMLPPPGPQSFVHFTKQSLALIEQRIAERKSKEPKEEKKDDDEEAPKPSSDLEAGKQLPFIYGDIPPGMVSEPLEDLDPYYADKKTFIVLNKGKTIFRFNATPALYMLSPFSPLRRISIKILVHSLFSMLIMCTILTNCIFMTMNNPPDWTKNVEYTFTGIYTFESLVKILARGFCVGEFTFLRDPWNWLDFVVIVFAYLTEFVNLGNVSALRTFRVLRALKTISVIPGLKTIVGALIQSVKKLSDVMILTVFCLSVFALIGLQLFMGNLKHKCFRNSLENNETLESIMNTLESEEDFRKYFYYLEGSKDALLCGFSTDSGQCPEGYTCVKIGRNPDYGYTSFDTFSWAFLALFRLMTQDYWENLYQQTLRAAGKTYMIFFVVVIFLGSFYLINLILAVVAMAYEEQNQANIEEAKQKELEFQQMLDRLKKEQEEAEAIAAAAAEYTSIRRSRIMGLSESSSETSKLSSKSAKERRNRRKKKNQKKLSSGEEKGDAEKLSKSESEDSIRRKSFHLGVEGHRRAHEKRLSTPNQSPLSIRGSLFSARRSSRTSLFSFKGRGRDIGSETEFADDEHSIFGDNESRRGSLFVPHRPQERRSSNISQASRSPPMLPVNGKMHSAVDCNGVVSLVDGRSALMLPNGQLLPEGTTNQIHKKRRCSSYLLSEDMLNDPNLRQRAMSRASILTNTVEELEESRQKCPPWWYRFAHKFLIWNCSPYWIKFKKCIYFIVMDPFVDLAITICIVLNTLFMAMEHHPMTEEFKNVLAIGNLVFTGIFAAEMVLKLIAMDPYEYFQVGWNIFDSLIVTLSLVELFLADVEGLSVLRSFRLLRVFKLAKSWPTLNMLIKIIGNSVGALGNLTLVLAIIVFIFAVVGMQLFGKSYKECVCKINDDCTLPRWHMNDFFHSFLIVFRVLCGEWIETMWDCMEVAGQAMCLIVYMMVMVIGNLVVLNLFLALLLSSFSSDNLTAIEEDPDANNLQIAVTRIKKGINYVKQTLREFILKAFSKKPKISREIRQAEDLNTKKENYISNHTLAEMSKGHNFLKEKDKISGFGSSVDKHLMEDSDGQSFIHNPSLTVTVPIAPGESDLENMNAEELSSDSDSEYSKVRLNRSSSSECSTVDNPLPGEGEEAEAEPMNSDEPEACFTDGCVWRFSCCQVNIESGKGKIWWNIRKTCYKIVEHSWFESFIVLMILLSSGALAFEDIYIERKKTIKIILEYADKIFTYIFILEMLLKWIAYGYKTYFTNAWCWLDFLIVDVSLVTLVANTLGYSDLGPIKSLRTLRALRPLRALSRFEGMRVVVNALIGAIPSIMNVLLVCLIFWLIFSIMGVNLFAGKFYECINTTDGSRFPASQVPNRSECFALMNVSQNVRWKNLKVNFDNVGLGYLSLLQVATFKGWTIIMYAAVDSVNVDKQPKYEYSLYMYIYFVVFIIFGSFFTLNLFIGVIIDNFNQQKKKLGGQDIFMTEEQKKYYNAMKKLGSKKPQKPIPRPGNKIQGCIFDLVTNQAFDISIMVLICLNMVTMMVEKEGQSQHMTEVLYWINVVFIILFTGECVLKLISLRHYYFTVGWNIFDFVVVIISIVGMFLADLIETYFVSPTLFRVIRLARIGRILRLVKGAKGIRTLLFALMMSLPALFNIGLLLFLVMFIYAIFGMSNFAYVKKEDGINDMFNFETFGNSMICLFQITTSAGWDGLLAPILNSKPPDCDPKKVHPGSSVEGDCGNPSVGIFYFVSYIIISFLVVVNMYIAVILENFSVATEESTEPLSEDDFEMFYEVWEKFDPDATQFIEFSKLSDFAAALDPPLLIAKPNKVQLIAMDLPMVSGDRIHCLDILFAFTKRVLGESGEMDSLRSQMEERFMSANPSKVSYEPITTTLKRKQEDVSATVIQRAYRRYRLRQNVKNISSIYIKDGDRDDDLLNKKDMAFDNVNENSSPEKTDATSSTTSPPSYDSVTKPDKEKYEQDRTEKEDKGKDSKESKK
hNav1.7, sequence (Q07699 19-218 partner): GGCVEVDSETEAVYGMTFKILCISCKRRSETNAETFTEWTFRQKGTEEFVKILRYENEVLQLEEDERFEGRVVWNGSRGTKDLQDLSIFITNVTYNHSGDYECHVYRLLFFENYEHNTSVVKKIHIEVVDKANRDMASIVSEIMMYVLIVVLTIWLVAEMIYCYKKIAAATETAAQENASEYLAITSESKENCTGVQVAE

Compared with CS(=O)(=O)NC(=O)c1cc(C2CC2)c(CN2CCC(S(=O)(=O)c3cc(Cl)cc(Cl)c3)CC2)cc1F [Example 532, 5-cyclopropyl-4-((4-((3,5-dichlorophenyl)sulfonyl)piperidin-1-yl)methyl)-2-fluoro-N-(methylsulfonyl)benzamide, trifluoroacetic acid salt], O=C(NS(=O)(=O)C1CC1)c1cc(C2CC2)c(CN2C[C@@H]3C[C@H]2CN3S(=O)(=O)c2cc(Cl)cc(Cl)c2)cc1F [Example 559, 5-cyclopropyl-N-(cyclopropylsulfonyl)-4-(((1S,4S)-5-((3,5-dichlorophenyl)sulfonyl)-2,5-diazabicyclo[2.2.1]heptan-2-yl)methyl)-2-fluorobenzamide, trifluoroacetic acid salt] is 12-fold lower in IC50: 0.221 µM for the first, 0.0189 µM for the second. The second is the more potent here.

For O=C(NS(=O)(=O)N1CCC1)c1cc(C2CC2)c(O[C@@H]2CCCN(Cc3ccc(F)cc3C(F)(F)F)C2)cc1F [Example 36, (R)—N-(azetidin-1-ylsulfonyl)-5-cyclopropyl-2-fluoro-4-((1-(4-fluoro-2-(trifluoromethyl)benzyl)piperidin-3-yl)oxy)benzamide], the IC50 was 0.0036 µM.

Same assay, conditions: read-out: Ligand Binding Assay; 100 pM [3H]compound, membranes with hNav1.7 and β1 subunit, 18 h, room temperature

Going from O=C(NS(=O)(=O)C1CC1)c1cc(C2CC2)c(O[C@@H]2CCCN(c3ccc(C(F)(F)F)cn3)C2)cc1F [Example 491, (R)-5-cyclopropyl-N-(cyclopropylsulfonyl)-2-fluoro-4-((1-(5-(trifluoromethyl)pyridin-2-yl)piperidin-3-yl)oxy)benzamide, trifluoroacetic acid salt] to COC[C@@H](c1cc(Cl)cc(Cl)c1)N1CCC[C@@H](Oc2cc(F)c(C(=O)NS(C)(=O)=O)cc2C2CC2)C1 [Example 447, 5-cyclopropyl-4-(((R)-1-((R)-1-(3,5-dichlorophenyl)-2-methoxyethyl)piperidin-3-yl)oxy)-2-fluoro-N-(methylsulfonyl)benzamide], the IC50 falls from 0.0283 µM to 0.006 µM (4.7-fold).

Going from CCS(=O)(=O)NC(=O)c1cc(C2CC2)c(OCC2(C)CN(C(c3ccccc3)c3ccccc3)C2)cc1F [Example 69, 4-((1-benzhydryl-3-methylazetidin-3-yl)methoxy)-5-cyclopropyl-N-(ethylsulfonyl)-2-fluorobenzamide] to COCC(c1cc(Cl)cc(Cl)c1)N1CCC(COc2cc(F)c(C(=O)NS(C)(=O)=O)cc2C2CC2)CC1 (centres unmarked) [Example 90, 5-Cyclopropyl-4-((1-(1-(3,5-dichlorophenyl)-2-methoxyethyl)piperidin-4-yl)methoxy)-2-fluoro-N-(methylsulfonyl)benzamide], the IC50 falls from 0.0061 µM to 0.00287 µM (2.1-fold). The second is the more potent here.

Going from CS(=O)(=O)NC(=O)c1cc(C2CC2)c(OCC2CCN(Cc3ccc(Cl)c(Cl)c3)CC2)cc1F [Example 147, 5-Cyclopropyl-4-((1-(3,4-dichlorobenzyl)piperidin-4-yl)methoxy)-2-fluoro-N-(methylsulfonyl)benzamide] to C[Si](C)(C)CCS(=O)(=O)NC(=O)c1cc(C2CC2)c(OCC2CN(C(c3ccccc3)c3ccccc3)C2)cc1F [Example 60, 4-((1-benzhydrylazetidin-3-yl)methoxy)-5-cyclopropyl-2-fluoro-N-((2-(trimethylsilyl)ethyl)sulfonyl)benzamide], the IC50 rises from 0.00603 µM to 1.6 µM (270-fold).

Compared with CS(=O)(=O)NC(=O)c1cc(C2CC2)c(OCC2CCN(Cc3ccc(Cl)c(F)c3)CC2)cc1F [Example 138, 4-((1-(4-Chloro-3-fluorobenzyl)piperidin-4-yl)methoxy)-5-cyclopropyl-2-fluoro-N-(methylsulfonyl)benzamide], CS(=O)(=O)NC(=O)c1cc(C2CC2)c(OCC2CCN(C(=O)c3ccccc3)CC2)cc1F [Example 197, 4-((1-Benzoylpiperidin-4-yl)methoxy)-5-cyclopropyl-2-fluoro-N-(methylsulfonyl)benzamide] is 290-fold higher in IC50: 0.0112 µM for the first, 3.2 µM for the second.

O=C(NS(=O)(=O)C1CC1)c1cc(C2CC2)c(CN2CCO[C@H](Cc3ccc(Cl)c(Cl)c3)C2)cc1F [Example 460, (R)-5-cyclopropyl-N-(cyclopropylsulfonyl)-4-((2-(3,4-dichlorobenzyl)morpholino)methyl)-2-fluorobenzamide] and C[C@H](c1cc(Cl)cc(C(F)(F)F)c1)N1CCC(COc2cc(F)c(C(=O)NS(C)(=O)=O)cc2C2CC2)CC1 (single isomer, unassigned) [Example 276] are within 1.5-fold of each other in IC50: 0.005 µM for the first, 0.0057 µM for the second.

Compared with C[C@@H]1CC[C@@H](COc2cc(F)c(C(=O)NS(C)(=O)=O)cc2C2CC2)CN1[C@H](C)c1cc(Cl)cc(Cl)c1 [Example 343, 5-cyclopropyl-4-(((3R,6R)-1-((R)-1-(3,5-dichlorophenyl)ethyl)-6-methylpiperidin-3-yl)methoxy)-2-fluoro-N-(methylsulfonyl)benzamide, trifluoroacetic acid salt], C[C@@H](c1cc(Cl)cc(Cl)c1)N1CCC(COc2cc(F)c(C(=O)NS(=O)(=O)N3CCC3)cc2C2CC2)CC1 (single isomer, unassigned) [Example 272] is 2-fold lower in IC50: 0.0084 µM for the first, 0.0042 µM for the second.

Compared with CS(=O)(=O)NC(=O)c1cc(C2CC2)c(OCC2CCN(Cc3ccc(Br)c(Cl)c3)CC2)cc1F [Example 587, 4-((1-(4-bromo-3-chlorobenzyl)piperidin-4-yl)methoxy)-5-cyclopropyl-2-fluoro-N-(methylsulfonyl)benzamide], O=C(NS(=O)(=O)C1CC1)c1cc(C2CC2)c(CN2CCC[C@@H](Oc3cc(Cl)cc(Cl)c3)C2)cc1F [Example 55, (R)-5-cyclopropyl-N-(cyclopropylsulfonyl)-4-((3-(3,5-dichlorophenoxy)piperidin-1-yl)methyl)-2-fluorobenzamide] is 4.6-fold higher in IC50: 0.0051 µM for the first, 0.0233 µM for the second.

Compared with O=C(NS(=O)(=O)N1CCC1)c1cc(C2CC2)c(CN2CCC(OCc3ccc(F)cc3Cl)CC2)cc1F [Example 479, N-(azetidin-1-ylsulfonyl)-4-((4-((2-chloro-4-fluorobenzyl)oxy)piperidin-1-yl)methyl)-5-cyclopropyl-2-fluorobenzamide, trifluoroacetic acid salt], C[C@@H](c1cc(Cl)cc(Cl)c1)N1CC(C)(COc2cc(F)c(C(=O)NS(C)(=O)=O)cc2C2CC2)C1 (single isomer, unassigned) [Example 186] is 14-fold lower in IC50: 0.0553 µM for the first, 0.004 µM for the second. The second is the more potent here.

First: CS(=O)(=O)NC(=O)c1cc(C2CC2)c(OCC2CCN(C(c3cc(Cl)cc(Cl)c3)C(F)F)CC2)cc1F (stereo in doubt) [Example 225, (S)-5-cyclopropyl-4-((1-(1-(3,5-dichlorophenyl)-2,2-difluoroethyl)piperidin-4-yl)methoxy)-2-fluoro-N-(methylsulfonyl)benzamide]
Second: CS(=O)(=O)NC(=O)c1cc(C2CC2)c(OC[C@@H]2C[C@H]3CC[C@@H](C2)N3Cc2cc(C(F)(F)F)cc(Cl)c2F)cc1F [Example 398, 4-(((1R,3S,5S)-8-(3-chloro-2-fluoro-5-(trifluoromethyl)benzyl)-8-azabicyclo[3.2.1]octan-3-yl)methoxy)-5-cyclopropyl-2-fluoro-N-(methylsulfonyl)benzamide, trifluoroacetic acid salt]
The IC50 of the first is 3.3-fold higher: 0.017 µM for the first, 0.0051 µM for the second. The second is the more potent here.

Compared with O=C(NS(=O)(=O)N1CCC1)c1cc(C2CC2)c(CN2CCO[C@H](Cc3ccc(Cl)c(Cl)c3)C2)cc1F [Example 459, (R)—N-(azetidin-1-ylsulfonyl)-5-cyclopropyl-4-((2-(3,4-dichlorobenzyl)morpholino)methyl)-2-fluorobenzamide], CS(=O)(=O)NC(=O)c1cc(C2CC2)c(OCC2CCN(CC(F)(F)F)CC2)cc1F [Example 116, 5-Cyclopropyl-2-fluoro-N-(methylsulfonyl)-4-((1-(2,2,2-trifluoroethyl)-piperidin-4-yl)methoxy)benzamide] is 6.2-fold higher in IC50: 0.0125 µM for the first, 0.0775 µM for the second.

First: CCCCS(=O)(=O)NC(=O)c1cc(C2CC2)c(OCC2CN(C(c3ccccc3)c3ccccc3)C2)cc1F [Example 65, 4-((1-benzhydrylazetidin-3-yl)methoxy)-N-(butylsulfonyl)-5-cyclopropyl-2-fluorobenzamide]
Second: C[C@H](c1cc(F)cc(Cl)c1)N1CCC(COc2cc(F)c(C(=O)NS(C)(=O)=O)cc2C2CC2)CC1 (single isomer, unassigned) [Example 230]
The IC50 of the first is 7.7-fold higher: 0.034 µM for the first, 0.0044 µM for the second.

First: O=C(NS(=O)(=O)C1CC1)c1cc(C2CC2)c(OCC2CCN(C(=O)c3ccc(Cl)cc3Cl)CC2)cc1F [Example 258, 5-Cyclopropyl-N-(cyclopropylsulfonyl)-4-((1-(2,4-dichlorobenzoyl)piperidin-4-yl)methoxy)-2-fluorobenzamide]
Second: C[C@@H](c1ccc(Cl)c(C2CC2)n1)N1CCC[C@@H](Oc2cc(F)c(C(=O)NS(C)(=O)=O)cc2C2CC2)C1 [Example 310, 4-(((R)-1-((S)-1-(5-chloro-6-cyclopropylpyridin-2-yl)ethyl)piperidin-3-yl)oxy)-5-cyclopropyl-2-fluoro-N-(methylsulfonyl)benzamide]
The IC50 of the first is 28-fold higher: 0.065 µM for the first, 0.0023 µM for the second.

Compared with CS(=O)(=O)NC(=O)c1cc(C2CC2)c(CN2CCO[C@@H](Cc3ccc(Cl)c(Cl)c3)C2)cc1F [Example 461, (S)-5-cyclopropyl-4-((2-(3,4-dichlorobenzyl)morpholino)methyl)-2-fluoro-N-(methylsulfonyl)benzamide], “5-Cyclopropyl-2-fluoro-N-(methylsulfonyl)-4-((1-(1-phenylethyl)-piperidin-4-yl)methoxy)benzamide [Example 146]” is 6.6-fold higher in IC50: 0.0421 µM for the first, 0.276 µM for the second. The first is the more potent here.

Going from CCS(=O)(=O)NC(=O)c1cc(C2CC2)c(OCC2CCN(Cc3cc(Cl)cc(C(F)(F)F)c3)CC2)cc1F [Example 216, 4-((1-(3-Chloro-5-(trifluoromethyl)benzyl)piperidin-4-yl)methoxy)-5-cyclopropyl-N-(ethylsulfonyl)-2-fluorobenzamide] to CS(=O)(=O)NC(=O)c1cc(C2CC2)c(O[C@H]2CCCN(Cc3ccc(F)cc3Cl)C2)cc1F [Example 573, (S)-4-((1-(2-chloro-4-fluorobenzyl)piperidin-3-yl)oxy)-5-cyclopropyl-2-fluoro-N-(methylsulfonyl)], the IC50 rises from 0.005 µM to 0.107 µM (21-fold).

For CS(=O)(=O)NC(=O)c1cc(C2CC2)c(OCC2CN(C(c3ccccc3)c3ccccn3)C2)cc1F (stereo in doubt) [Example 119, (S)-5-Cyclopropyl-2-fluoro-N-(methylsulfonyl)-4-((1-(phenyl(pyridin-2-yl)methyl)azetidin-3-yl)methoxy)benzamide], the IC50 was 0.306 µM.
